How the values were obtained:
Type in all cases: in vivo
[1] = tested on: Setaria viridis; assay: Test Example 2 upland soil treatment; settings: Table 5, upland soil treatment, index 0-5
How it was run: (§1)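 Dose of 1 kg active ingredient per hectare, given as diluted wettable powder to the soil surface the day after sowing in upland soil (~1 cm cover). Effect rated 21 days on: 5 for ≥90%, 4 for 70–<90%, down to 0 for <10%.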

[2] = tested on: Stellaria media; assay: Test Example 2 upland soil treatment; settings: Table 5, upland soil treatment, index 0-5
How it was run: as §1

[3] = tested on: Digitaria adscendens; assay: Test Example 2 upland soil treatment; settings: Table 5, upland soil treatment, index 0-5
How it was run: as §1

[4] = tested on: Chenopodium album; assay: Test Example 2 upland soil treatment; settings: Table 5, upland soil treatment, index 0-5
How it was run: as §1

[5] = tested on: soybean (Glycine max); assay: Test Example 1 upland field foliage treatment, crop phytotoxicity; settings: Table 4, upland field foliage treatment, index 0-5
How it was run: (§2)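 A leaf-surface application at an active-ingredient rate of 1 kg per hectare was made to 14-day-old plants in upland soil. Evaluation followed 21 days later using a six-grade scale, where grade 5 means at least 90% kill or phytotoxicity.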

[6] = tested on: wheat (Triticum aestivum); assay: as above; settings: Table 4, upland field foliage treatment, index 0-5
How it was run: as §2

[7] = tested on: soybean (Glycine max); assay: Test Example 2 upland soil treatment, crop phytotoxicity; settings: Table 5, upland soil treatment, index 0-5
How it was run: as §1

[8] = tested on: wheat (Triticum aestivum); assay: as above; settings: Table 5, upland soil treatment, index 0-5
How it was run: as §1

[9] = tested on: Setaria viridis; assay: Test Example 1 upland field foliage treatment; settings: Table 4, upland field foliage treatment, index 0-5
How it was run: as §2

[10] = tested on: Stellaria media; assay: Test Example 1 upland field foliage treatment; settings: Table 4, upland field foliage treatment, index 0-5
How it was run: as §2

[11] = tested on: Digitaria adscendens; assay: Test Example 1 upland field foliage treatment; settings: Table 4, upland field foliage treatment, index 0-5
How it was run: as §2

[12] = tested on: Chenopodium album; assay: Test Example 1 upland field foliage treatment; settings: Table 4, upland field foliage treatment, index 0-5
How it was run: as §2

[13] = tested on: Scirpus juncoides; assay: Test Example 3 paddy field treatment; settings: Table 6, paddy field treatment, active ingredient 1 kg per hectare, 21st day after dropping, index 0-5
Method: (§3) A plastic pot of 130 cm^2 was filled with paddy soil, and soil puddling was carried out to adjust the submerged depth to 4 cm. Subsequently, seeds of Echinochloa crusgalli, Monochoria vaginalis, Ammannia multiflora and Scirpus juncoides were sowed, and rice (Oryza sative, variety: Koshihikari) of two-leaf period was transplanted by 2 rice plants of 1 stub per pot at a depth of 3 cm. On the 10th day after the transplantation, the wettable powder prepared in Formulation Example 1 was diluted with water such that the amount of the active ingredient became 1 kg per hectare, and then dropped to diffuse on the water surface. On the 21st day after the dropping, observation and evaluation were carried out according to the aforesaid criteria.
(§4) Herbicidal activity was evaluated based on the following criteria.
(§5) • 5: herbicidal effect of not less than 90%, or phytotoxicity of 90% or more • 4: herbicidal effect of not less than 70% and less than 90%, or phytotoxicity of 70% or more and less than 90% • 3: herbicidal effect of not less than 50% and less than 70%, or phytotoxicity of 50% or more and less than 70% • 2: herbicidal effect of not less than 30% and less than 50%, or phytotoxicity of 30% or more and less than 50% • 1: herbicidal effect of not less than 10% and less than 30%, or phytotoxicity of 10% or more and less than 30% • 0: herbicidal effect of not less than 0% and less than 10%, or phytotoxicity of 0% or more and less than 10%

[14] = tested on: Ammannia multiflora; assay: Test Example 3 paddy field treatment; settings: Table 6, paddy field treatment, active ingredient 1 kg per hectare, 21st day after dropping, index 0-5
Method: as §3, §4, §5

[15] = tested on: Echinochloa crusgalli; assay: Test Example 3 paddy field treatment; settings: Table 6, paddy field treatment, active ingredient 1 kg per hectare, 21st day after dropping, index 0-5
Method: as §3, §4, §5

[16] = tested on: Monochoria vaginalis; assay: Test Example 3 paddy field treatment; settings: Table 6, paddy field treatment, active ingredient 1 kg per hectare, 21st day after dropping, index 0-5
Method: as §3, §4, §5

[17] = tested on: Rice (Oryza sativa); assay: Test Example 3 paddy field treatment, crop phytotoxicity; settings: Table 6, paddy field treatment, transplanted rice, active ingredient 1 kg per hectare, 21st day after dropping, index 0-5
Method: as §3, §4, §5

| SMILES | Herbicidal activity SV: Setaria viridis [1] | Herbicidal activity SM: Stellaria media [2] | Herbicidal activity DA: Digitaria adscendens [3] | Herbicidal activity CA: Chenopodium album [4] | Herbicidal activity (phytotoxicity) GM: Soybean (Glycine max) [5] | Herbicidal activity (phytotoxicity) TA: Wheat (Triticum aestivum) [6] | Herbicidal activity (phytotoxicity) GM: Soybean (Glycine max) [7] | Herbicidal activity (phytotoxicity) TA: Wheat (Triticum aestivum) [8] | Herbicidal activity SV: Setaria viridis [9] | Herbicidal activity SM: Stellaria media [10] | Herbicidal activity DA: Digitaria adscendens [11] | Herbicidal activity CA: Chenopodium album [12] | Herbicidal activity SJ [13] | Herbicidal activity AM [14] | Herbicidal activity EC [15] | Herbicidal activity MV [16] | Herbicidal activity (phytotoxicity) OS [17] |
| --- | --- | --- | --- | --- | --- | --- | --- | --- | --- | --- | --- | --- | --- | --- | --- | --- | --- |
| CCOC(CNC(=O)C(Cn1cc(C)c(-c2ccccc2)n1)=NOC)OCC [Compound 28] | 3 (herbicidal effect of not less than 50% and less than 70%, or phytotoxicity of 50% or more and less than 70%) | 3 (herbicidal effect of not less than 50% and less than 70%, or phytotoxicity of 50% or more and less than 70%) | 4 (herbicidal effect of not less than 70% and less than 90%, or phytotoxicity of 70% or more and less than 90%) | 4 (herbicidal effect of not less than 70% and less than 90%, or phytotoxicity of 70% or more and less than 90%) | 0 (herbicidal effect of not less than 0% and less than 10%, or phytotoxicity of 0% or more and less than 10%) | 0 (herbicidal effect of not less than 0% and less than 10%, or phytotoxicity of 0% or more and less than 10%) | 0 (herbicidal effect of not less than 0% and less than 10%, or phytotoxicity of 0% or more and less than 10%) | 0 (herbicidal effect of not less than 0% and less than 10%, or phytotoxicity of 0% or more and less than 10%) | 3 (herbicidal effect of not less than 50% and less than 70%, or phytotoxicity of 50% or more and less than 70%) | 3 (herbicidal effect of not less than 50% and less than 70%, or phytotoxicity of 50% or more and less than 70%) | 3 (herbicidal effect of not less than 50% and less than 70%, or phytotoxicity of 50% or more and less than 70%) | 4 (herbicidal effect of not less than 70% and less than 90%, or phytotoxicity of 70% or more and less than 90%) |  |  |  |  |  |
| CNC(=O)C(Cn1cc(C)c(-c2cccc(C)c2)n1)=NOC [Compound 36] | 4 (herbicidal effect of not less than 70% and less than 90%, or phytotoxicity of 70% or more and less than 90%) | 5 (herbicidal effect of not less than 90%, or phytotoxicity of 90% or more) | 4 (herbicidal effect of not less than 70% and less than 90%, or phytotoxicity of 70% or more and less than 90%) | 5 (herbicidal effect of not less than 90%, or phytotoxicity of 90% or more) | 0 (herbicidal effect of not less than 0% and less than 10%, or phytotoxicity of 0% or more and less than 10%) | 0 (herbicidal effect of not less than 0% and less than 10%, or phytotoxicity of 0% or more and less than 10%) | 1 (herbicidal effect of not less than 10% and less than 30%, or phytotoxicity of 10% or more and less than 30%) | 0 (herbicidal effect of not less than 0% and less than 10%, or phytotoxicity of 0% or more and less than 10%) | 4 (herbicidal effect of not less than 70% and less than 90%, or phytotoxicity of 70% or more and less than 90%) | 4 (herbicidal effect of not less than 70% and less than 90%, or phytotoxicity of 70% or more and less than 90%) | 5 (herbicidal effect of not less than 90%, or phytotoxicity of 90% or more) | 5 (herbicidal effect of not less than 90%, or phytotoxicity of 90% or more) |  |  |  |  |  |
| CNC(=O)C(Cn1cc(C)c(-c2ccc(C)c(F)c2)n1)=NOC [Compound 74] | 4 (herbicidal effect of not less than 70% and less than 90%, or phytotoxicity of 70% or more and less than 90%) | 5 (herbicidal effect of not less than 90%, or phytotoxicity of 90% or more) | 5 (herbicidal effect of not less than 90%, or phytotoxicity of 90% or more) | 5 (herbicidal effect of not less than 90%, or phytotoxicity of 90% or more) | 0 (herbicidal effect of not less than 0% and less than 10%, or phytotoxicity of 0% or more and less than 10%) | 0 (herbicidal effect of not less than 0% and less than 10%, or phytotoxicity of 0% or more and less than 10%) | 1 (herbicidal effect of not less than 10% and less than 30%, or phytotoxicity of 10% or more and less than 30%) | 0 (herbicidal effect of not less than 0% and less than 10%, or phytotoxicity of 0% or more and less than 10%) | 5 (herbicidal effect of not less than 90%, or phytotoxicity of 90% or more) | 5 (herbicidal effect of not less than 90%, or phytotoxicity of 90% or more) | 5 (herbicidal effect of not less than 90%, or phytotoxicity of 90% or more) | 5 (herbicidal effect of not less than 90%, or phytotoxicity of 90% or more) |  |  |  |  |  |
| CCN(CC)C(=O)C(Cn1cc(C)c(-c2ccccc2)n1)=NOC [Compound 94] | 3 (herbicidal effect of not less than 50% and less than 70%, or phytotoxicity of 50% or more and less than 70%) | 4 (herbicidal effect of not less than 70% and less than 90%, or phytotoxicity of 70% or more and less than 90%) | 3 (herbicidal effect of not less than 50% and less than 70%, or phytotoxicity of 50% or more and less than 70%) | 5 (herbicidal effect of not less than 90%, or phytotoxicity of 90% or more) | 0 (herbicidal effect of not less than 0% and less than 10%, or phytotoxicity of 0% or more and less than 10%) | 0 (herbicidal effect of not less than 0% and less than 10%, or phytotoxicity of 0% or more and less than 10%) | 0 (herbicidal effect of not less than 0% and less than 10%, or phytotoxicity of 0% or more and less than 10%) | 0 (herbicidal effect of not less than 0% and less than 10%, or phytotoxicity of 0% or more and less than 10%) | 3 (herbicidal effect of not less than 50% and less than 70%, or phytotoxicity of 50% or more and less than 70%) | 5 (herbicidal effect of not less than 90%, or phytotoxicity of 90% or more) | 3 (herbicidal effect of not less than 50% and less than 70%, or phytotoxicity of 50% or more and less than 70%) | 5 (herbicidal effect of not less than 90%, or phytotoxicity of 90% or more) |  |  |  |  |  |
| CNC(=O)C(Cn1cc(C)c(-c2cccc(F)c2F)n1)=NOC [Compound 55] | 5 (herbicidal effect of not less than 90%, or phytotoxicity of 90% or more) | 5 (herbicidal effect of not less than 90%, or phytotoxicity of 90% or more) | 5 (herbicidal effect of not less than 90%, or phytotoxicity of 90% or more) | 5 (herbicidal effect of not less than 90%, or phytotoxicity of 90% or more) |  |  | 0 (herbicidal effect of not less than 0% and less than 10%, or phytotoxicity of 0% or more and less than 10%) | 0 (herbicidal effect of not less than 0% and less than 10%, or phytotoxicity of 0% or more and less than 10%) |  |  |  |  | 5 (herbicidal effect of not less than 90%, or phytotoxicity of 90% or more) | 5 (herbicidal effect of not less than 90%, or phytotoxicity of 90% or more) | 5 (herbicidal effect of not less than 90%, or phytotoxicity of 90% or more) | 5 (herbicidal effect of not less than 90%, or phytotoxicity of 90% or more) | 0 (herbicidal effect of not less than 0% and less than 10%, or phytotoxicity of 0% or more and less than 10%) |
